Literature values as cited in patent US7109171B2, “Methods for treating FSH related conditions with GnRH antagonists” (Praecis Pharmaceuticals Inc., priority 2000, dated 2006).
Square brackets hold non-standard residues; d marks the D form. Peptide text beside a SMILES is read from it. dPhe(4-Cl) = N[C@H](Cc1ccc(Cl)cc1)C(=O)O; d2Nal = N[C@H](Cc1ccc2ccccc2c1)C(=O)O; dCit = NC(=O)NCCC[C@@H](N)C(=O)O; d3Pal = N[C@H](Cc1cccnc1)C(=O)O

Columns and labels:
LH = conditions: in vivo
FSH = conditions: single bolus injection

Molecule	effect on LH levels (LH)	effect on FSH levels (FSH)
CC(=O)N[C@H](Cc1ccc2ccccc2c1)C(=O)N[C@H](Cc1ccc(Cl)cc1)C(=O)N[C@H](Cc1cccnc1)C(=O)N[C@@H](CO)C(=O)N[C@@H](Cc1ccc(O)cc1)C(=O)N[C@H](CCCNC(N)=O)C(=O)N[C@@H](CC(C)C)C(=O)N[C@@H](CCCNC(=N)N)C(=O)N1CCC[C@H]1C(=O)N[C@H](C)C(N)=O [Cetrorelix] (Ac-[d2Nal][dPhe(4-Cl)][d3Pal]SY[dCit]LRP[dA]-NH2)	reduced	did not significantly affect
Nal-Glu	reduced	did not significantly affect
